From patent publication US20240132449A1, “HETEROCYCLIC COMPOUNDS AND METHODS OF USE THEREOF” (1cBio, Inc., priority 2022, published 2024) come the findings set out here.

Structures can show the parent of a compound that is named as a salt.

In test [1] the target is recombinant human PARP2 (Homo sapiens, UniProt Q9UGN5). The test can be described thus: PARP2 fluorescence polarization binding assay. The settings on record: for IC50: binding IC50, GST-tagged PARP2 20 nM, PARPi-FL 3 nM; for inhibition at 10 µM: read-out: PARP2 % inh at 10 μM. The method in brief: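 GST-tagged PARP2, added at 40 nM in 50 mM Tris pH 8.0, 0.001% Triton X-100, 10 mM MgCl2, 150 mM NaCl, was preincubated 30 min at RT with compound (10-point 3-fold series or single concentration). PARPi-FL probe was then added at 6 nM for 4 h. IC50 was fitted from fluorescence polarization (ex 480/em 535 nm) with floating top and bottom.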
Chain of recombinant human PARP2 (Q9UGN5 whole entry): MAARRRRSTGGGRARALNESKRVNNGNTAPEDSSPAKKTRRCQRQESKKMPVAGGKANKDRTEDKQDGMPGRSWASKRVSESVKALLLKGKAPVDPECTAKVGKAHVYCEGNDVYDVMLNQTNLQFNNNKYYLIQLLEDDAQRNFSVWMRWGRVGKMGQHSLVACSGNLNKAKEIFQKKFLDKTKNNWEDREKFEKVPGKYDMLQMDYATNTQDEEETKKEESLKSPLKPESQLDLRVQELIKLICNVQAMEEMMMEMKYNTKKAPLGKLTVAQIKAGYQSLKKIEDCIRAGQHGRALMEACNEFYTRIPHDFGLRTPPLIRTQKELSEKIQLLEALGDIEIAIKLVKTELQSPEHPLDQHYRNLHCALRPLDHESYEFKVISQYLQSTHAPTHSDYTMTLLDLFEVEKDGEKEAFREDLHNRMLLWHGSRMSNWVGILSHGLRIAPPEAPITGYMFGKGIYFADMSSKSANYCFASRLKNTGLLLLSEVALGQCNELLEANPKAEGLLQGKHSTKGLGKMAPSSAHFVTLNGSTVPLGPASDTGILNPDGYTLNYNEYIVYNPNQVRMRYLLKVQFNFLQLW
In general terms: Fluorescence polarisation rises when a labelled molecule tumbles more slowly, as on binding a larger partner.

Test [2] has as its target PARP1 (Homo sapiens, UniProt P09874). The test can be described thus: PARP1 biochemical trapping assay (BPS PARPtrap). The method, then: Compounds of the present disclosure were tested in a PARP1 biochemical trapping assay at BPS Bioscience (San Diego, CA). PARP1 is known to bind damaged DNA through its DNA-binding domains. Binding to DNA activates PARP1, and in the presence of NAD+, PARP1 ribosylates itself (auto-ribosylation), leading to PARP1 dissociation from the DNA due to the accumulated negative charge of the ribosyl polymer. In the presence of some inhibitors, however, PARP remains bound to the DNA, a phenomenon termed trapping.
The BPS PARPtrap assay kit for PARP1 (BPS Catalog #80584) was used. A series of dilutions of the compounds were prepared with 10% DMSO in water. The final concentration of DMSO was 1% in all reactions. The enzymatic reactions were conducted in duplicates at room temperature in a 96-well plate. The 45 μl reaction mixtures in PARPtrap buffer 1 containing PARP1 fluorescent labelled oligonucleotide duplex, PARP enzyme and the test compound were incubated at room temperature for 10 min. After pre-incubation, the enzymatic reaction was initiated by adding 5 μl of 10×NAD+ solution. The reaction was incubated for 45-60 min at room temperature.
Fluorescence polarization was measured at an excitation of 470 nm and an emission of 518 nm using a Tecan Infinite M1000 microplate reader. The blank value was subtracted from all other values. Fluorescence polarization was analyzed by Tecan Magellan 6 software and wells containing DNA were used as references. The fluorescence polarization data were then evaluated using GraphPad Prism software. The fluorescence polarization in absence of the compound in each data set was defined as 0% activity (FPo), while the fluorescence polarization in the absence of both NAD+ and the compound was defined as 100% activity (FPt). The percent activity in the presence of the compound was calculated according to the equation % activity=[FP−FPo]/[(FPt−FPo)]×100, where FP=the fluorescence polarization in the presence of the compound.
The values of % activity versus a series of compound concentrations were then plotted using non-linear regression analysis of a sigmoidal dose-response curve generated with the equation Y=B+(T−B)/1+10^((LogEC50−X)×Hill Slope), where Y=percent activity, B=minimum percent activity, T=maximum percent activity, X=logarithm of compound and Hill Slope=slope factor or Hill coefficient. The EC50 value was determined by the concentration causing a half-maximal percent activity. EC50 values are shown in Table C and are presented in ranges, in which “+++”<300 nM, 300 nM≤“++”<3000 nM, and “+”≥3000 nM.

Test [3] has as its system MDA-MB-436 cells. The test can be described thus: Colony formation assay. The format is cell-based. The settings on record: Homo sapiens, seeding density 2000-4000 cells/well and treatment time 12-14 days. As to the method: A colony formation assay was performed to assess the activity of test compounds. MDA-MB-436 cells were harvested, counted and seeded in culture medium (DMEM+10% FBS+1% PS) at a specified density in a volume of 600-1000 μL per well in a 24-well cell culture plate. The plates were incubated overnight at 37° C. in a 5% CO2 incubator. Test compounds were dissolved in DMSO and added to the plate in duplicate wells for each concentration tested. On day 7, the supernatant was removed and 1000 μL of freshly diluted compounds were added to the plates. The plates were returned to incubator to continue incubation. After treatment with the compounds for a specified number of days, e.g. 10-14 days, detection was performed. For detection, the plate was incubated for 20 min after removing the medium and adding fixing solution. Subsequently, the fixing solution was removed and the plates washed with PBS. The plates were then stained with staining solution (0.1% (w/v) crystal violet). After removal of the staining solution, the plates were washed with PBS and scanned on a LICOR imager using the 700 nm channel.

Chain of PARP1 (P09874 whole entry, the tested form may be a part): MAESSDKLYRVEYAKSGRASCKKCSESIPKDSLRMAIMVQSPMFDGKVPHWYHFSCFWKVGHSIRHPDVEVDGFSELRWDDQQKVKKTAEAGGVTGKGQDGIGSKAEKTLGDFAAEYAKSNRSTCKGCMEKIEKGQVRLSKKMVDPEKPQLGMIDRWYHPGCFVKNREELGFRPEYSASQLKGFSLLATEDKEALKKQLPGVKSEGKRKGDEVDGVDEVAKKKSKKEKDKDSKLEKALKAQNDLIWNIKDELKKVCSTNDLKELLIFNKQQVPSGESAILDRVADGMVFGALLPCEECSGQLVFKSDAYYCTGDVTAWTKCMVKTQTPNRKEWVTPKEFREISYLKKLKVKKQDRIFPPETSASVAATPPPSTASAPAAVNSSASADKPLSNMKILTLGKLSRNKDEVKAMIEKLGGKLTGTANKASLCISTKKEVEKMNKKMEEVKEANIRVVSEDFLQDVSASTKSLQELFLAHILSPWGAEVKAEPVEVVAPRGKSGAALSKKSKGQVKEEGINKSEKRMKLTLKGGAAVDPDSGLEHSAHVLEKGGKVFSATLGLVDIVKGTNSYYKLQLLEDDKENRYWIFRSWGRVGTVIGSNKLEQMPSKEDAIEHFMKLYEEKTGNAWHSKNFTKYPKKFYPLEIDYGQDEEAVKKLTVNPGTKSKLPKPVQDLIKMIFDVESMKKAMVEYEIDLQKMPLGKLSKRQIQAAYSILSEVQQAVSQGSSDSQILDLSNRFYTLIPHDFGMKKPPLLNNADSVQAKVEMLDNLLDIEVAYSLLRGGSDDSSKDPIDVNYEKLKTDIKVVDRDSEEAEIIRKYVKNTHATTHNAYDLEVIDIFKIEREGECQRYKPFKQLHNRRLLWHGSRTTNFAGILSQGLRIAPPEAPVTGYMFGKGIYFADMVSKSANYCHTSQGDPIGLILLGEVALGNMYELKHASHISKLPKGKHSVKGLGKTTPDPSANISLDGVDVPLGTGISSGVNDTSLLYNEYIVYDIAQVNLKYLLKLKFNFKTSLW

In the case of `CCN1Cc2ccc(CN3CCN(c4ccc(C(=O)NC)nc4)CC3)cc2NC1=O` [Compound 196, 5-(4-((3-ethyl-2-oxo-1,2,3,4-tetrahydroquinazolin-7-yl)methyl)piperazin-1-yl)-N-methylpicolinamide formate], in test [1], the IC50 – broadly, the concentration needed to halve the response being measured – was over 3 µM and the inhibition at 10 µM lay in the range of 33 to 67%. Moreover, the EC50 (usually the concentration giving half of the maximal effect) in test [2] lay in the range of 0.3 to 3 µM. Moreover, in test [3], the inhibition at 0.3 µM is under 33.3%, the inhibition at 3 µM fell in the range of 33.3 to 66.7% and the inhibition at 30 µM was 33.3 to 66.7%.
`CCn1c(=O)[nH]c2cc(CN3CCN(c4ccc(C(=O)NC)nc4C)CC3)ccc2c1=O` [Compound 16, 5-{4-[(3-ethyl-2,4-dioxo-1H-quinazolin-7-yl)methyl]piperazin-1-yl}-N,6-dimethylpyridine-2-carboxamide]: in test [1], the IC50 is over 3 µM and the inhibition at 10 µM was 33 to 67%. The EC50 in test [2] was under 0.3 µM. In test [3], this compound registered an inhibition at 0.3 µM of at least 66.7%, an inhibition at 3 µM of at least 66.7% and an inhibition at 30 µM of at least 66.7%.
On to `CCn1c(=O)[nH]c2cc(CN3CCN(c4ccc(C(=O)NC)nc4C)CC3)sc2c1=O` [Compound 188, 5-(4-((3-ethyl-2,4-dioxo-1,2,3,4-tetrahydrothieno[3,2-d]pyrimidin-6-yl)methyl)piperazin-1-yl)-N,6-dimethylpicolinamide], for which, in test [1], the IC50 is over 3 µM and the inhibition at 10 µM is 33 to 67%. The EC50 in test [2] is 0.3 to 3 µM. In test [3], the inhibition at 0.3 µM is at least 66.7%, the inhibition at 3 µM is at least 66.7% and the inhibition at 30 µM is at least 66.7%.
As for `CCn1c(=O)[nH]c2cc(CN3CCN(c4ccc(C(=O)NC)nc4)CC3)ccc2c1=O` [Compound 3, 5-(4-((3-ethyl-2,4-dioxo-1,2,3,4-tetrahydroquinazolin-7-yl)methyl)piperazin-1-yl)-N-methylpicolinamide formate], in test [1], the IC50 was over 3 µM and the inhibition at 10 µM was in the range of 33 to 67%. Further, the EC50 in test [2] lay in the range of 0.3 to 3 µM. In test [3], this compound returned an inhibition at 0.3 µM of at least 66.7%, an inhibition at 3 µM of at least 66.7% and an inhibition at 30 µM of at least 66.7%.
`CCn1c(=O)[nH]c2cc(CN3CCN(c4ccc(C(=O)NC)nc4C)CC3)ccc2c1=S` [Compound 51, 5-(4-((3-ethyl-2-oxo-4-thioxo-1,2,3,4-tetrahydroquinazolin-7-yl)methyl)piperazin-1-yl)-N,6-dimethylpicolinamide formate]: in test [1], the IC50 is over 3 µM and the inhibition at 10 µM lay within 33 to 67%. Moreover, the EC50 in test [2] is 0.3 to 3 µM. In test [3], this compound gave an inhibition at 0.3 µM of at least 66.7%, an inhibition at 3 µM of at least 66.7% and an inhibition at 30 µM of at least 66.7%.
